Here are results for 61 molecules from a melting point compilation (Tetko et al.; mined from patent text by program, amines drawn as free bases though some values may be those of a salt).

In turn, `CC(C)(CCc1ccccc1)NCC(O)CO` (stereo unspecified) registered a melting point of 74 to 77 °C.

With `Cc1nc(-c2ccccc2)nc(OCC(=O)O)c1C`, the melting point fell in the range of 175 to 177 °C.

Turning to `O=C1CC2(CCCC2)c2ccc(Cl)cc21`, the melting point turned out to be 54 °C.

With `COCOc1ccccc1-c1cc(-c2ccc(OC)c(C(=O)O)c2)c(C#N)c(NC(=O)c2cccs2)n1`, the melting point lay within 187 to 189 °C.

`FC(F)(F)c1cccc(-c2cc(C(F)(F)F)n3ncc(-c4ccncc4)c3n2)c1` returned a melting point of 241 °C.

`O=C(O)C1CC2CCC1c1[nH]c3ccccc3c12` (stereo unspecified) registered a melting point of 212 to 214 °C.

`COC(=O)c1cc(=O)c(OCc2ccccc2)co1` came in with a melting point of 134 to 136 °C.

`COc1ccc(C)cc1NC(=O)Nc1ccc(N2CCN(C(=O)Nc3ccccc3)CC2)cc1`: the melting point was 221 °C.

For `COC1c2ccccc2C2C(=O)N(Cc3ccccc3)C(=O)C12` (stereo unspecified), the melting point fell in the range of 170 to 172 °C.

`CC1CC2C3CC(F)C4=CC(=O)C=CC4(C)C3C(O)CC2(C)C1C(=O)COC(=O)CCC(=O)O` (stereo unspecified) came in with a melting point of 212 to 214 °C.

In turn, `CCCCc1nc2c(N)nc3c(c2n1CC(C)(C)OCCS(C)(=O)=O)CCCC3` gave a melting point of 146 to 148 °C.

Consider `CN1CCN(Cc2ccc(NC(=O)c3cccc4cc(Oc5cc(N)ncn5)ccc34)cc2C(F)(F)F)CC1`, for which the melting point lay in the range of 127 to 130 °C.

In turn, `COc1cc2cc(C(=O)CCC(=O)O)sc2cc1OC` showed a melting point of 177 to 178 °C.

Turning to `COc1ccc(C=CC(=O)NCCc2ccc(I)c(S(N)(=O)=O)c2)c(OC)c1`, the melting point is 180 °C.

In turn, `O=C1CCCCC1c1cccnc1` (stereo unspecified) had a melting point of 78 to 80 °C.

Turning to `CCOC(=O)/C=C/c1cnc(-c2ccc(OCc3ccccc3)c(C34CC5CC(CC(C5)C3)C4)c2)cn1`, the melting point was 145 to 148 °C.

For `CC1(CN)CN(c2cc3c(cc2F)c(=O)c(C(=O)O)cn3C2CC2)C1`, the melting point was in the range of 274 to 279 °C.

Take `O=C(O)c1ccc(C(F)(F)F)cc1[N+](=O)[O-]`: the melting point lay within 136 to 138 °C.

The molecule `O=C(NOCCO)c1cc(Cl)c(F)c(F)c1Nc1ccc(I)cc1` registered a melting point of 174 to 176 °C.

In the case of `Cc1c(-c2ccncc2)[nH]c2c1C(=O)CC(C)C2` (stereo unspecified), the melting point fell in the range of 247 to 248 °C.

`CCOc1ncnc2c1sc1nc(N(C)C)c3c(c12)CC(C)(C)CC3` displayed a melting point of 220 to 221 °C.

As to `CC12CCCCC1CCC1C2CCC2(C)C(NCc3ccccc3)CCC12` (stereo unspecified), the melting point lay within 85.5 to 87.5 °C.

`Cc1cc(SCC#Cc2cccc(C(F)(F)F)c2)ccc1OCC(=O)O` returned a melting point of 81 to 82 °C.

As to `CCNC(CO)Cc1cn(Cc2ccccc2)cn1` (stereo unspecified), the melting point lay within 109 to 110 °C.

In turn, `CN1CCc2c([nH]c3ccc(NS(=O)(=O)c4ccc(N)cc4)cc23)C1` showed a melting point of 236 to 237 °C.

`NC(=S)N1CCN(c2ccc(SC(CCc3ccc(Cl)cc3)Cn3ccnc3)cc2)CC1` (stereo unspecified) came in with a melting point of 130 to 133 °C.

For `Cc1cc(-c2nc3cccnn3c2-c2ccnc(NC(=O)c3ccsc3)c2)ccc1F`, the melting point fell in the range of 217 to 218 °C.

`Nc1ccc(OCC(F)(F)F)cc1[N+](=O)[O-]` had a melting point of 84 to 85 °C.

In turn, `O=C(c1ccc(F)cc1)C1CCN(CCn2c(=O)[nH]c3sccc3c2=O)CC1` displayed a melting point of 231 to 235 °C.

In turn, `CC(=O)OC1C(C)OC(Oc2ncn(Cc3ccc([N+](=O)[O-])cc3)c2C(N)=O)C(OC(C)=O)C1OC(C)=O` (stereo unspecified) gave a melting point of 103 to 105 °C.

With `CCNc1nc(C)c(C(=O)OCC)c(NCCCN(C)C)c1[N+](=O)[O-]`, the melting point is less than 20 °C.

On to `O=C(c1ccccc1F)N1C(=O)c2ccccc2S1(=O)=O`, for which the melting point was in the range of 148 to 151 °C.

`CC(c1ccccc1)(c1ccc(OC(=O)CCl)cc1)c1ccc(OC(=O)CCl)cc1` had a melting point of 97 to 98 °C.

In turn, `COCCOc1nc2cc(-c3ccc(Cl)cc3)nnc2c2ccccc12` returned a melting point of 148 to 150 °C.

`Cc1cc(N)nc(CCC(=O)Nc2cc(I)cnc2N)c1` registered a melting point of 172 °C.

Turning to `CC(C)CCCC(C)C1CCC2C3CC=C4CC(OCCCCCCO)CCC4(C)C3CCC12C` (stereo unspecified), the melting point is 75.9 to 81 °C.

Molecule `CC(O)C(C)Sc1sc(-c2cc[nH]n2)c2c1C(=O)CC(C)(C)C2` (stereo unspecified) registered a melting point of 171 to 174 °C.

`CS(=O)(=O)c1ccc(-c2sc(-c3ccccc3Cl)nc2-c2ccc(F)cc2F)cc1` showed a melting point of 166 to 169 °C.

In turn, `CSC1(C)C(=O)N(C(C)=O)c2ccc(C3=NNC(=O)SC3)cc21` (stereo unspecified) gave a melting point of 198 °C.

`CC(C)n1nc(-c2c(-c3ccccc3)nn3ccc(OCCN4CCCC4=O)cc23)ccc1=O` showed a melting point of 162 to 163 °C.

Molecule `COc1cc(-c2ccccc2)on1` came in with a melting point of 69 to 71 °C.

On to `Oc1cccc(Nc2n[nH]c3ncnc(Nc4cccc(Cl)c4)c23)c1`, for which the melting point is 265 to 266 °C.

As to `COc1cc(Nc2nccc(-c3ccc(Br)cc3)n2)cc(OC)c1OC`, the melting point turned out to be 179 °C.

In the case of `Cc1cc(NC(=O)N(CC(C)C)CC(C)C)cc(C)c1S(=O)(=O)C[N+](=O)[O-]`, the melting point was in the range of 153 to 155 °C.

In turn, `C=CCOC(=O)C1=C(C)NC(C)=C(C(=O)OC)C1c1ccccc1F` (stereo unspecified) showed a melting point of 130 °C.

For `CC(CS)C(=O)N(CC(=O)O)c1ccccc1` (stereo unspecified), the melting point fell in the range of 168 to 170 °C.

Take `COc1ccc(CN(C)CCCCc2ccc(NC(=O)c3cccc4c(=O)c5ccccc5n(C)c34)cc2)cc1OC`: the melting point came to 142 °C.

Molecule `CCOC(Cc1ccc(OCCN2CCSc3ccccc32)cc1)C(=O)O` (single isomer, unassigned; (-)) yielded a melting point of 110 °C.

Turning to `O=C(Nc1cnc2c(c1)nc1n2CCC1O)c1cc2cc(C(F)(F)F)cnc2n1Cc1cccc(F)c1` (single isomer, unassigned; (-)), the melting point was in the range of 279 to 280 °C.

On to `CCc1noc(-c2ncn(-c3cccc(OC)c3)c2COC)n1`, for which the melting point lay in the range of 66 to 68 °C.

Consider `O=C(O)c1ccc2c(c1)C(=O)c1ccccc1S2(=O)=O`, for which the melting point was found to be 276 °C.

`Cc1c(N2CC(F)C(CN)C2)c(F)cc2c(=O)n(N)c(=O)n(C3CC3)c12` (stereo unspecified) registered a melting point of 170 to 172 °C.

The molecule `CC(=O)c1c(-c2ccc(O)cc2)oc2ccc(O)cc12` showed a melting point of 243 to 251 °C.

The molecule `CCC(=O)C(Cc1cc(C#N)cc(C#N)c1)C(=O)CC` gave a melting point of 67 to 69 °C.

Consider `CCOC(=O)c1cccc(NC(=O)c2cc(-c3ccc(F)cc3)oc2C)c1`, for which the melting point fell in the range of 171 to 172 °C.

For the molecule `CCn1nc(C)c(CN(C(=O)C2CCCc3ccccc32)c2ccc(C(C)C)cc2)c1C` (stereo unspecified), the melting point fell in the range of 142 to 143 °C.

Regarding `CN(C)c1ncc(C(=O)CNCC(O)c2cccc(OC(=O)C(C)(C)C)c2)c(-c2ccccc2)n1` (stereo unspecified), the melting point lay in the range of 145 to 146 °C.

Take `CCOc1cncc(N2CCN3CCCC3C2)n1` (stereo unspecified): the melting point lay in the range of 101 to 102 °C.

`Cc1nc(N2CCN(Cc3ccc(C(F)(F)F)cc3)C2=O)sc1C(=O)NCc1ccccc1` showed a melting point of 127 to 128 °C.

As for `COc1ccc2c(c1OC)C1(COc3cc4c(cc31)OCCO4)C(=O)N2Cc1ccc(C(F)(F)F)o1` (stereo unspecified), the melting point lay within 62 to 65 °C.

Molecule `CC(C)(C)C(NC(=O)c1ccc(Cl)cc1)NC(=N[N+](=O)[O-])Nc1cccnc1` (stereo unspecified) showed a melting point of 203 to 204 °C.

As a reminder, the melting point is the temperature, or range, at which the solid turns liquid.
